From patent US11401274B2, “[1,2,4]Triazolo derivatives as PDE1 inhibitors for the treatment of diabetes” (Eli Lilly and Company, priority 2017, dated 2022)

How the values were obtained:
Assay type in all cases: biochemical
human PDE1A = human PDE1A (Homo sapiens (Human), UniProt P54750); experiment: Ca2+ calmodulin dependent PDE enzyme assay (SPA, [3H]cAMP), PDE1A; details: [3H]cAMP 47 nM; enzyme 0.25 nM; read-out: PDE 1A IC50 (nM) ± SD (n = number of runs)
Description: (§1) The nucleotide sequences encoding full-length human PDE1A (NP_001003683.1) and PDE1C (NP_005011.1) are inserted into pFastBac1 (Invitrogen) vector with an N-terminal HIS tag. The nucleotide sequences encoding full-length human PDE4D (NP_006194.2) and catalytic domain (residue 641-1141) of PDE3A (NP_000912.3) are inserted into pFastBac1 (Invitrogen) vector with a C-terminal HIS tag. The nucleotide sequences encoding full-length human PDE6A (NP_000431.2) and PDE6B (AAH00249.1) are inserted into pFastBacDual (Invitrogen) vector with an N-terminal HIS tag and N-terminal Flag tag, respectively, for production of PDE6A/6B dimer. Baculovirus generation and protein expression in Sf9 cells are carried out according to the protocol of Bac-to-Bac Baculovirus Expression system (Invitrogen). The nucleotide sequence encoding full-length human PDE1B (NP_000915.1) is inserted into pIEX4 (Novagen) with a C-terminal HIS tag, and both protein productions in Sf9 cells are carried out according to the vendor's protocol (Novagen). The His tagged PDE proteins are purified using Ni-NTA agarose (Qiagen) followed by size exclusion chromatography on a SUPERDEX© 200 column (GE Healthcare) in storage buffer (20 mM Tris-HCl, pH7.5, 150 mM NaCl, 10% Glycerol). The Flag tagged PDE proteins including PDE6A/6B are purified using anti-Flag M2-agarose (Sigma), after purification through NiNTA column chromatography and eluted in storage buffer (50 mM Tris-HCl, pH7.5, 150 mM NaCl, 10% Glycerol, 0.1 mg/ml Flag peptide). All purified proteins are stored at −80° C. in small aliquots.
(§2) All 3′, 5′ cyclic nucleotide phosphodiesterase (PDE) enzyme activities are measured with a radiometric enzyme assay based on SPA detection system (scintillation proximity assay). Compounds to be tested are diluted in pure dimethyl sulfoxide (DMSO) using ten point concentration response curves. Maximal compound concentration in the reaction mixture is either 10 or 100 μM. Compounds at the appropriate concentration are pre-incubated with either of the PDE enzymes for 30 minutes before the reaction is started by the addition of substrate. Reactions are allowed to proceed for 60 minutes at room temperature. Next, reactions are stopped by addition of SPA beads. Samples are read 12 hours later in a MICROBETA™ TRILUX© Counter. “IC50” refers to the concentration of the compound that produces 50% of the maximal inhibitory response possible for that compound. IC50 values are calculated by plotting the normalized data vs. log [compound] and fitting the data using a four parameter logistic equation.
(§3) PDE1B, PDE1A, and PDE1C are cloned and purified following standard protein generation procedures. The assay buffer is prepared to give a final concentration in the assay of 50 mM Tris-HCl, 50 mM MgC2, 4 mM CaCl2, 0.1% Bovine serum albumin and 6 U/ml Calmodulin in water, at pH 7.5. The final enzyme concentration is 0.25, 0.074 and 0.0012 nM, for PDE1A, PDE1B and PDE1C respectively. The reactions are started by addition of the substrate, [^3H]cAMP, to give a final concentration of 47 nM.

human PDE1B = human PDE1B (Homo sapiens (Human), UniProt Q01064); experiment: Ca2+ calmodulin dependent PDE enzyme assay (SPA, [3H]cAMP), PDE1B; details: [3H]cAMP 47 nM; enzyme 0.074 nM; read-out: PDE 1B IC50 (nM) ± SD (n = number of runs)
Description: as §1, §2, §3

human PDE1C = human PDE1C (Homo sapiens (Human), UniProt Q14123); experiment: Ca2+ calmodulin dependent PDE enzyme assay (SPA, [3H]cAMP), PDE1C; details: [3H]cAMP 47 nM; enzyme 0.0012 nM; read-out: PDE 1C IC50 (nM) ± SD (n = number of runs)
Description: as §1, §2, §3

[1] = biological target: human PDE3A (catalytic domain) (Homo sapiens (Human), UniProt Q14432); experiment: PDE enzyme assay using [3H]cAMP as substrate, PDE3A; details: [3H]cAMP 47 nM, enzyme 0.008 nM, read-out: PDE 3A IC50 (μm) ± SD (n = number of runs)
Chain of human PDE3A (catalytic domain) (Q14432 641-1141): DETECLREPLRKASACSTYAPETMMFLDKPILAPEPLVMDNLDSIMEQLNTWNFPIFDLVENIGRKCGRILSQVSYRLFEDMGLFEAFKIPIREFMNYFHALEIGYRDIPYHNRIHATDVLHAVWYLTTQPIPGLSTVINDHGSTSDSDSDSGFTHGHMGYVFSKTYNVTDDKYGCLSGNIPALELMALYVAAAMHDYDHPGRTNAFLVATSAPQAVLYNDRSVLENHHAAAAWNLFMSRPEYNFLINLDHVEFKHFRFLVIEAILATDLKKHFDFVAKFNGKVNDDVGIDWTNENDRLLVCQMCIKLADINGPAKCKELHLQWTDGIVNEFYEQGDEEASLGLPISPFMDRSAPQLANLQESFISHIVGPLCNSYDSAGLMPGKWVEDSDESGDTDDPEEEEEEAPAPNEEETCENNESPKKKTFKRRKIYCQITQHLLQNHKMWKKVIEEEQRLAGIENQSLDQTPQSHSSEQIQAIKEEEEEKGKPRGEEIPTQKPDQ
Description: as §1, §2
(§4) The following phosphodiesterase activities are measured using [3H]cAMP as reaction substrate: human PDE3A (catalytic domain) and human PDE4D. Both enzymes are cloned and purified following standard procedures. The assay buffer is prepared to give a final concentration in the assay of 50 mM Tris-HCl, 8.3 mM MgCl2, 1.7 mM ethylenediarninetetraacetic acid (EDTA) and 0.1% Bovine serum albumin at pH 7.5. Final enzyme concentrations are 0.008 and 0.021 nM for PDE3A and PDE4D, respectively. Reactions are started by addition of the substrate, [3H]cAMP, to give a final concentration of 47 nM.

human PDE4D = human PDE4D (Homo sapiens (Human), UniProt Q08499); experiment: PDE enzyme assay using [3H]cAMP as substrate, PDE4D; details: [3H]cAMP 47 nM; enzyme 0.021 nM; read-out: PDE 4D IC50 (μm) ± SD (n = number of runs)
Chain of human PDE4D (Q08499 other isoform, or with tags, fused parts or gaps): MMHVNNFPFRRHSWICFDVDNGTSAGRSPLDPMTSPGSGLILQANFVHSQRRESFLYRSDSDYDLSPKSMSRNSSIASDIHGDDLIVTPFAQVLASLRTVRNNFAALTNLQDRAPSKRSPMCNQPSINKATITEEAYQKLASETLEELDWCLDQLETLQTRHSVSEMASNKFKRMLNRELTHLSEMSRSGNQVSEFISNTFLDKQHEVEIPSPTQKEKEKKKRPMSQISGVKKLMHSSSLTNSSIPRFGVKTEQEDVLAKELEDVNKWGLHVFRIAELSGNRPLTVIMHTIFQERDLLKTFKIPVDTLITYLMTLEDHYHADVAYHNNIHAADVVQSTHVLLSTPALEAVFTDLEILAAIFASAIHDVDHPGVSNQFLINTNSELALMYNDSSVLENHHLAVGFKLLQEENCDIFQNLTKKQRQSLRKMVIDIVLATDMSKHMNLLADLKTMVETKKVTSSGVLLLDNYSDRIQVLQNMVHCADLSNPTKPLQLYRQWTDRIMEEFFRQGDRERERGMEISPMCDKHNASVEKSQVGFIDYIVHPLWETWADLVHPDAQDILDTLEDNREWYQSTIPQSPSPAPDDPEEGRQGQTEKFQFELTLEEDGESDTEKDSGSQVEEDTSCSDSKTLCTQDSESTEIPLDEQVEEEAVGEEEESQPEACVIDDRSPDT
Description: as §1, §2, §4

human PDE6A/6B = human PDE6A/6B (Homo sapiens (Human), UniProt P16499+P35913); experiment: PDE enzyme assay using [3H]cGMP as substrate, PDE6A/6B; details: [3H]cGMP 80 nM; enzyme 5 nM; read-out: PDE 6AB IC50 (μM) ± SD (n = number of runs)
Chain of human PDE6A/6B (P16499 whole entry): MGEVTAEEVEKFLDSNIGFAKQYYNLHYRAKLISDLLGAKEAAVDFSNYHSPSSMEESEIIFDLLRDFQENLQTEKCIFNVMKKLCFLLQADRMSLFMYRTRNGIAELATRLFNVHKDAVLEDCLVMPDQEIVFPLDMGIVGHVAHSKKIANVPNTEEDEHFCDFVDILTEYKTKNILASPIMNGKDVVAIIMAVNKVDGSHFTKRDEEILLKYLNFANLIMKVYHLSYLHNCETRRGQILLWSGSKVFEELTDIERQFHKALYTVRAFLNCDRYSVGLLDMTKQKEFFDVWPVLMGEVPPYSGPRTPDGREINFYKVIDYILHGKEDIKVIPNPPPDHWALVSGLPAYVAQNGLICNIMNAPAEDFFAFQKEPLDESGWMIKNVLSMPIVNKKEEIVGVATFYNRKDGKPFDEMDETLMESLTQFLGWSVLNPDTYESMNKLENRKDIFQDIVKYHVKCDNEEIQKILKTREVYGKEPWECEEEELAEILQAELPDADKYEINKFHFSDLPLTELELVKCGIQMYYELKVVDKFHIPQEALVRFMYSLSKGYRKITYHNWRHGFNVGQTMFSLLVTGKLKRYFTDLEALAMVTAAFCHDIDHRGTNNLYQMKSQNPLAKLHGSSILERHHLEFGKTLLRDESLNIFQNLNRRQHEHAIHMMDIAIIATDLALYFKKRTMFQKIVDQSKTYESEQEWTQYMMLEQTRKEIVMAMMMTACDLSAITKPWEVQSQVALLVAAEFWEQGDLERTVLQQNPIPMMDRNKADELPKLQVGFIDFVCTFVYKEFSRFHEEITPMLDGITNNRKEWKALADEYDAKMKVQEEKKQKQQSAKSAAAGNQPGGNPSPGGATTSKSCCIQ
Chain of human PDE6A/6B (P35913 other isoform, or with tags, fused parts or gaps): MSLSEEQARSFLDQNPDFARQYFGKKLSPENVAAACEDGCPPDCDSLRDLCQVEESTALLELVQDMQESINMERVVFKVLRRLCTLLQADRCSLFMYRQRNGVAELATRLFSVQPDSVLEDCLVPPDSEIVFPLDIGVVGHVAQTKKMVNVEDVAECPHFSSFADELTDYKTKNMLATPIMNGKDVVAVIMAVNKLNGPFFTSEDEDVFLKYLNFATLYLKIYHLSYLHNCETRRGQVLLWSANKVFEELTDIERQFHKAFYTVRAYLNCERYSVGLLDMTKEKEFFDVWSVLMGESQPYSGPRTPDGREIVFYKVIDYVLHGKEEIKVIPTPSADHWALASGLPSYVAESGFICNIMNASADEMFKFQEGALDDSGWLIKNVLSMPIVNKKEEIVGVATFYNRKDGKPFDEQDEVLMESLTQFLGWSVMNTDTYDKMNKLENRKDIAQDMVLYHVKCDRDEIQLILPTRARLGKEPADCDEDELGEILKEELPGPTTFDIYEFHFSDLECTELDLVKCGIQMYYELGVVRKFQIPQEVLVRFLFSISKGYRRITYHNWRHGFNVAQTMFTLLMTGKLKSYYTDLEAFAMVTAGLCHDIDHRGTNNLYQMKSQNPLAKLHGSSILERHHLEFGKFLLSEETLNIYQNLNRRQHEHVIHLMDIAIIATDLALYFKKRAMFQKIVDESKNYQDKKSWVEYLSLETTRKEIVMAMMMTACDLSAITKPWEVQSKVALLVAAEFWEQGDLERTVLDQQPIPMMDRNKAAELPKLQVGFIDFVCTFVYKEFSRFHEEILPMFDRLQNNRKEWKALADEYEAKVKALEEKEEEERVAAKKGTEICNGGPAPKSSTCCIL
Description: as §1, §2
The following phosphodiesterase activities are measured using [3H]cGMP as reaction substrate: human PDE6A/6B. The catalytic active form of human PDE6 is a dimer composed of a α (human PDE6A) and β subunit (human PDE6B). The dimer of human PDE6A/6B is produced by the expression and purification strategy, using two purification steps, i.e., NiNTA and anti-FLAG Sepharose chromatography. The assay buffer is prepared to give a final concentration in the assay of 50 mM Tris-HCl, 8.3 mM MgC2, 1.7 mM EDTA and 0.1% Bovine serum albumin at pH 7.5. The final enzyme concentration is 5 nM. The reactions are started by addition of the substrate, [3H]cGMP, to give a final concentration of 80 nM.

SMILES	IC50 (human PDE1A)	IC50 (human PDE1B)	IC50 (human PDE1C)	IC50 [1]	IC50 (human PDE4D)	IC50 (human PDE6A/6B)
O=c1c2nnc(C3(C4CC4)CC3)n2c2c(n1CC1CC1)COCC2 [Example 6, 1-(1-cyclopropylcyclopropyl)-5-(cyclopropylmethyl)-3-oxo-7,8-dihydro-5H-pyrano-[1,2,4]triazolo[4,3-a]quinoxalin-4-one]	8.4 ± 3.8 nM	14.9 nM	7.6 ± 1.9 nM	> 100000 nM	39200 ± 16500 nM	> 10 µM
O=c1c2nnc(C3(C4CC4)CC3)n2c2c(n1CC1CC1)CCCCC2 [Example 8, 1-([1,1′-bi(cyclopropan)]-1-yl)-5-(cyclopropylmethyl)-5,6,7,8,9,10-hexahydro-4H-cyclohepta[e][1,2,4]triazolo[4,3-a]pyrazin-4-one]	6.5 ± 2.6 nM	6.6 nM	4.7 ± 1.4 nM	> 100000 nM	12100 nM	> 10 µM
O=c1c2nnc(C3(C4CC4)CC3)n2c2c(n1CC1CC1)CCOC2 [Example 3, 1-([1,1′-bi(cyclopropan)]-1-yl)-5-(cyclopropylmethyl)-5,6,7,9-tetrahydro-4H-pyrano[4,3-e][1,2,4]triazolo[4,3-a]pyrazin-4-one]	9.8 ± 2.2 nM	8.7 nM	5.2 ± 0.6 nM	> 100000 nM	16400 ± 300 nM	> 10 µM
CCCCn1c2c(n3c(C4(C5CC5)CC4)nnc3c1=O)COCC2 [Example 4, 1-([1,1′-bi(cyclopropan)]-1-yl)-5-butyl-5,6,7,9-tetrahydro-4H-pyrano[4,3-e][1,2,4]triazolo[4,3-a]pyrazin-4-one]	6.3 ± 0.4 nM	7.8 nM	1.5 ± 0.5 nM	> 100000 nM	21800 nM	> 10 µM

Compounds with a lower IC50 (human PDE1A), results first:

IC50 (human PDE1A)	IC50 (human PDE1B)	IC50 (human PDE1C)	IC50 [1]	IC50 (human PDE4D)	IC50 (human PDE6A/6B)	SMILES
3 ± 2.1 nM	4.1 nM	1.4 ± 0.9 nM	> 100000 nM	13200 ± 2500 nM	> 10 µM	CCCCn1c2c(n3c(C4(C5CC5)CC4)nnc3c1=O)CCCC2 [Example 2, 1-([1,1′-bi(cyclopropan)]-1-yl)-5-butyl-6,7,8,9-tetrahydro-[1,2,4]triazolo[4,3-a]quinoxalin-4(5H)-one]
5.2 ± 2 nM	12 nM	2 ± 0.1 nM	> 100000 nM	> 100000 nM	> 10 µM	CCCCn1c2c(n3c(C4(C5CC5)CC4)nnc3c1=O)CCOC2 [Example 7, 1-([1,1′-bi(cyclopropan)]-1-yl)-5-butyl-8,9-dihydro-6H-pyrano[3,4-e][1,2,4]triazolo[4,3-a]pyrazin-4(5H)-one]
2.9 ± 1.9 nM	3.1 nM	2.6 ± 3.3 nM	> 100000 nM	12700 nM	> 10 µM	CCCn1c2c(n3c(C4(C5CC5)CC4)nnc3c1=O)CCCC2 [Example 1, 1-([1,1′-bi(cyclopropan)]-1-yl)-5-propyl-6,7,8,9-tetrahydro-[1,2,4]triazolo[4,3-a]quinoxalin-4(5H)-one]
5.8 ± 2.3 nM	4.2 nM	1.9 ± 0.4 nM	> 100000 nM	19200 nM	> 10 µM	O=c1c2nnc(C3(C4CC4)CC3)n2c2c(n1CC1CCC1)CCOC2 [Example 5, 1-([1,1′-bi(cyclopropan)]-1-yl)-5-(cyclobutylmethyl)-5,6,7,9-tetrahydro-4H-pyrano[4,3-e][1,2,4]triazolo[4,3-a]pyrazin-4-one]
